Assay results published in US9539341B2, “Methods and compositions for targeting adipose cells in mammals” (Board of Regents, the University of Texas System, priority 2011, dated 2017).
“Also recorded” adds a separate entry of the source.

How the values were obtained:
[1] = test system: perivascular WAT cells (PDGFRβ+ ASC); assay: Biodistribution of biotinylated synthetic cyclic peptide (streptavidin-Cy3), WAT; type: in vivo, mouse; conditions: biotinylated cyclic peptide i.v., 1 hr, CD31 / CD45 co-staining
Text: (§1) FIGS. 2A-J depict the validation of cyclic WAT7 Peptide (SEQ ID NOS: 13) Homing to ASC. Panels A-D are confocal anti-phage (red) and anti-CD31 (bright green) immunofluorescence in paraffin sections of formalin-fixed WAT and lung from mice intravenously injected with phage displaying WAT-homing peptide WAT7 (SEQ ID NOS: 13 AND 14) or a lung-homing peptide LU2 (SEQ ID NOS: 19). […] upon digital channel merging indicates localization (arrow) of phage on non-endothelial perivascular cells observed for WAT7 (SEQ ID NOS: 13) in WAT (A) but not in lung (B), and for LU2 (SEQ ID NO: 19) in lung (D) but not in WAT (C). […] Note the association (arrow) of cyclic WAT7 (SEQ ID NOS: 13) specifically with perivascular WAT cells (E) in a pattern overlapping with PDGFRβ expressed on ASC (F-G). Like PDGFRβ, WAT7 is not associated with CD31+ endothelial cells (E) or CD45+ hematopoietic cells (H). WAT7 was not detected in lung (I) despite the abundance of PDGFRβ+LSC (J). Nuclear TOPRO3 staining is blue. Scale bar: 100 μM.
(§2) Mouse Tissue and Cell Analysis by Immunofluorescence: Peptides chemically synthesized, cyclized via their N- and C-terminal cysteines, purified to at least 95% purity (Genemed), and biotinylated were injected (500 μg) via tail vein and allowed to circulate for 1 hr. […] Fluorescence images were acquired with an Olympus IX70 inverted fluorescence microscope/Magnafire software (Olympus). […]

[2] = test system: C34+CD31−CD45− cells isolated from lung; assay: In vivo competition (re-homing) assay of 11 admixed phage clones, lung; design: species or system mouse; conditions: equal amounts of 11 phage clones mixed and injected; percent of sequenced clones on C34+CD31−CD45− cells from lung
Procedure: (§3) For competitive homing experiment, 5×10^9 TU for each of the 11 chosen phage clones were admixed and the combined 5.5×10^10 TU was injected. For validation of individual clones, 1×10^10 TU for each phage clones was injected. After 1 hr of circulation and heart perfusion with 10 ml of phosphate buffer saline (PBS), WAT, tibia/femurs, bone-associated skeletal muscle, and lungs were collected. Bone marrow was isolated by flushing tibia/femurs. Hematopoietic and endothelial cells were depleted from cell suspensions of each organ by Dynabeads (Invitrogen) coated with anti-TER119, anti-CD31, and anti-CD45 antibodies (BD Biosciences), after which the remaining cells were processed by FACS to purify CD34+CD31−CD45− cells. Bound phage were recovered by infecting K91 E. coli, quantified by phage transforming unit (TU) counting, and processed for sequencing of the peptide-coding DNA as described in Arap, et al. 2002, ibid and Kolonin, et al., 2006, ibid. For identification of conserved peptide motifs, ClustalW2 software was used.
(§4) After 4 rounds of synchronous in vivo biopanning, eight CX7C and CX8C sequences repeatedly recovered from ASC with frequency above 1% were identified, which were termed WAT1 through WAT8 (see Table 1 below). In parallel, a matched number of peptide inserts homing to lung stromal cells (LSC) were sequenced as a control. None of the WAT-homing peptides were enriched in the lung. Four sequences repeatedly recovered in the lung with frequency above 1%, were termed LU1 through LU4 (see Table 1 below). […] Because the focus of this study is WAT-specific MSC, this clone was excluded from further analysis. Other selected peptides were subjected to an in vivo competition assay in order to identify those with the highest specificity of binding. Equal amounts of phage for the 11 clones displaying peptides WAT1 through WAT7 (SEQ ID NOS: 1-14) and LU1 through LU4 (SEQ ID NOS: 17-24) were admixed and injected into a mouse. Homing specificity of each clone was assessed by quantifying frequency of phage coding for each peptide selected on C34+CD31−CD45− cells isolated from either WAT or lung.

[3] = test system: CD34+CD31−CD45− cells (MSC) from WAT; assay: Synchronous in vivo phage display biopanning, clones recovered from WAT MSC (ASC); design: species or system mouse; conditions: percent of sequenced phage clones carrying the insert in WAT after 4 rounds of synchronous in vivo biopanning on CD34+CD31−CD45− cells
Text: (§5) Phage Library Screening: Random peptide libraries based on the M13-derived bacteriophage vector fUSE5 displaying inserts CX7C, CX8C, and CX9C on the pIII protein were admixed (1:1:1) to the combined 10^10 TU of mixed library for the screen performed based on the synchronous biopanning in vivo upon tail vein injection (see for example, US20050074747 and Arap, et al., Nat. Med. 8:121-127, 2002; Kolonin, et al., FASEB J. 20: 979-981, 2006).
as §3
(§6) Methods for isolation of MSC by fluorescence-activated cell sorting (FACS) from organ cell suspensions based on the C34+CD31−CD45− immunophenotype (FIG. 8B) were combined with phage display and optimized for ASC. By adapting the previously described “synchronous in vivo biopanning” method of (Kolonin et al., 2006, ibid), a mixture of cyclic CX7C, CX8C, and CX9C (C: disulfide-bonded cysteines; X: any amino acid) random peptide libraries was screened (FIG. 1A). This approach made it possible to select MSC probes from the pool of over 10^11 combinatorial peptides. Throughout the screen, progressive enrichment in the number of phage particles recovered on MSC from WAT, as well as from the chosen control organs: lung, bone marrow, and skeletal muscle (FIG. 1B) was observed.
as §4
(§7) Shown in Table 1 above are the percent (%) of the sequenced phage clones that carried the indicated WAT or LU insert present within WAT (% in WAT) or lung (% in LUNG) following 4 rounds of synchronous in vivo biopanning on CD34+CD31−CD45− cells.

[4] = test system: CD34+CD31−CD45− cells (MSC) from lung; assay: Synchronous in vivo phage display biopanning, clones recovered from lung MSC (LSC); design: species or system mouse; conditions: percent of sequenced phage clones carrying the insert in lung after 4 rounds of synchronous in vivo biopanning on CD34+CD31−CD45− cells
Text: as §5, §3, §6, §4, §7

[5] = test system: WAT CD34+CD31−CD45− cells (ASC) versus lung CD34+CD31−CD45− cells (LSC); assay: Homing of individual phage-peptide clones injected separately, TU on WAT vs lung MSC; type: in vivo, mouse; conditions: individual phage clones injected into mice, FIG. 1C
Text: FIGS. 1A-C depict the screen for MSC-homing peptides. (A) depicts the schematic for a screen for peptides homing to organ-specific MSC populations. […] In every selection round, erythroid (TER119+), endothelial (CD31+) and hematopoietic (CD45+) cells were immunodepleted and then FACS was used to collect CD34+CD31−CD45− cells (MSC) from WAT, lung, bone marrow, and skeletal muscle. (B) Phage-peptides bound to WAT MSC (ASC), in parallel with phage-peptides bound to MSC of control organs, were quantified, amplified, pooled, and used for the next round of biopanning. Increased recovery of phage transforming units (TU) in successive rounds reflects the enrichment of phage-peptides homing to MSC of individual target organs. (C) Relative specificity of ASC homing assessed for individual phage-peptide clones separately injected into mice as a ratio of TU recovered on WAT to CD34+CD31−CD45− to TU recovered on lung CD34+CD31−CD45− cells. Fd-Tet: control insertless phage. Values shown are mean±SD for triplicate measurements.
For competitive homing experiment, 5×10^9 TU for each of the 11 chosen phage clones were admixed and the combined 5.5×10^10 TU was injected. […] Bound phage were recovered by infecting K91 E. coli, quantified by phage transforming unit (TU) counting, and processed for sequencing of the peptide-coding DNA as described in Arap, et al. 2002, ibid and Kolonin, et al., 2006, ibid. […]

[6] = test system: stroma/vasculature of lung; assay: Biodistribution of peptide-displaying phage by anti-phage immunofluorescence, lung; type: in vivo, mouse; conditions: intravenous injection, immunofluorescence of tissue sections
Text: as §1, §2

[7] = test system: C34+CD31−CD45− cells isolated from WAT; assay: In vivo competition (re-homing) assay of 11 admixed phage clones, WAT; design: species or system mouse; conditions: equal amounts of 11 phage clones mixed and injected; percent of sequenced clones on C34+CD31−CD45− cells from WAT
Procedure: as §3, §4

co-localization with endothelial cells or CD45+ hematopoietic cells in WAT [1] | Compound | Re-home to Lung (%) [2] [%] | % in WAT [3] [%] | % in LUNG [4] [%] | specificity of homing to ASC compared to lung MSC [5] | phage accumulation in lung [6] | Re-home to WAT (%) [7] [%]
did not co-localize | NCCCC[C@@H]1NC(=O)[C@H](Cc2c[nH]c3ccccc23)NC(=O)[C@H](CO)NC(=O)[C@@H](N)CSSC[C@@H](C(=O)O)NC(=O)[C@H](CCC(=O)O)NC(=O)CNC(=O)[C@H](Cc2ccccc2)NC(=O)[C@H](Cc2c[nH]c3ccccc23)NC(=O)[C@H](Cc2ccc(O)cc2)NC1=O [WAT-7, SWKYWFGE] | – | – | – | – | – | –
– | AVYRSTG [LU-1] | 52.2 | 0 | 71.6 | – | – | –
– | CWLGEWLGC [mPep] | – | – | – | modest preference for ASC; also recorded: did not display any WAT specificity | – | –
– | ESGFPTVG [LU-2, control] | 40.2 | 0 | 14.7 | – | associated with the stroma/vasculature of lung | –
– | GQWLGNWL [WAT-8] | 13.6 | 13.6 | 0 | modest preference for ASC | – | 0
– | GSGGMSPS [WAT-6] | 1.9 | 1.9 | 0 | – | – | 0
– | IRGKAGR [LU-4] | 1.1 | 0 | 5.2 | – | – | 0
– | KHYGGGVA [WAT-1] | 9.1 | 9.1 | 0 | – | – | 1.1
– | LGVGPGF [LU-3] | 1.1 | 0 | 5.2 | – | – | 0
– | LRQGNPT [WAT-5] | 1.9 | 1.9 | 0 | – | – | 0
– | RFLLPQG [WAT-3] | 3.9 | 3.9 | 0 | – | – | 0
– | YEGSEVS [WAT-4] | 2.9 | 2.9 | 0 | – | – | 0
